Reference: ChEMBL document CHEMBL3885861, “Open TG-GATES”

Species on record: Rattus norvegicus
Test: Open TG-GATES - Regimen: Daily Repeat
Type: toxicity, organism-based, Sprague-Dawley
Parameters: regimen Daily Repeat, gender Male, age 6 weeks
Settings: in vivo, po, route gavage; for APTT / Bas / Eos / Fbg / Hb / Ht / Lym / MCH / MCHC / MCV / Mono / Neu / PT / Plat / RBC / Ret / WBC: tissue Blood; for KIDNEY_L / KIDNEY_R / KIDNEY_TOTAL: tissue Kidney; for LIVER: tissue Liver; for A/G / ALP / ALT / AST / BUN / CRE / Ca / Cl / DBIL / GLC / IP / K / LDH / Na / PL / RALB / TBIL / TC / TG / TP / gamma-GTP: tissue Plasma
[1] = 0 mg/kg, 72 h, dose level Control, time 3 day
[2] = 0 mg/kg, […], dose level Control, time 7 day
[3] = 0 mg/kg, […], dose level Control, time 14 day
[4] = 0 mg/kg, […], dose level Control, time 28 day
[5] = 25 mg/kg, 72 h, dose level Low, time 3 day
[6] = 25 mg/kg, […], dose level Low, time 7 day
[7] = 25 mg/kg, […], dose level Low, time 14 day
[8] = 25 mg/kg, […], dose level Low, time 28 day

CCSCC[C@H](N)C(=O)O [ETHIONINE]
TERMINAL_BW [1]: 234.6 g
APTT [1]: 19.8 s
Bas [1]: 0%
Eos [1]: 1%
Fbg [1]: 226.8 mg/dL
Hb [1]: 13 g/dL
Ht [1]: 38.3%
Lym [1]: 78.2%
MCH [1]: 21 pg
MCHC [1]: 34%
MCV [1]: 61.7 fL
Mono [1]: 3%
Neu [1]: 17.2%
PT [1]: 12 s
Plat [1]: 126.2 x10_4/uL
RBC [1]: 621.6 x10_4/ul
Ret [1]: 5.9%
WBC [1]: 113.1 x10_2/uL
KIDNEY_L [1]: 1.1 g
KIDNEY_R [1]: 1.1 g
KIDNEY_TOTAL [1]: 2.1 g
LIVER [1]: 10.9 g
A/G [1]: 1.6
ALP [1]: 977.6 IU/L
ALT [1]: 35.6 IU/L
AST [1]: 68 IU/L
BUN [1]: 13.8 mg/dL
CRE [1]: 0.4 mg/dL
Ca [1]: 10.8 mg/dL
Cl [1]: 101 meq/L
DBIL [1]: 0.08 mg/dL
GLC [1]: 210.2 mg/dL
IP [1]: 7.8 mg/dL
K [1]: 3.9 meq/L
LDH [1]: 174.8 IU/L
Na [1]: 140.4 meq/L
PL [1]: 149 mg/dL
RALB [1]: 3.4 g/dL
TBIL [1]: 0.1 mg/dL
TC [1]: 74 mg/dL
TG [1]: 99.2 mg/dL
TP [1]: 5.5 g/dL
gamma-GTP [1]: 1 IU/L
TERMINAL_BW [2]: 269.1 g
TERMINAL_BW [3]: 307.1 g
TERMINAL_BW [4]: 407.1 g
APTT [2]: 20.5 s
Bas [2]: 0%
Eos [2]: 0.8%
Fbg [2]: 222.8 mg/dL
Hb [2]: 14 g/dL
Ht [2]: 41.2%
Lym [2]: 79%
MCH [2]: 21.1 pg
MCHC [2]: 34%
MCV [2]: 61.8 fL
Mono [2]: 2.8%
Neu [2]: 16.6%
PT [2]: 12.1 s
Plat [2]: 123.3 x10_4/uL
RBC [2]: 666 x10_4/ul
Ret [2]: 5.6%
WBC [2]: 125.1 x10_2/uL
APTT [3]: 18.9 s
Bas [3]: 0%
Eos [3]: 1%
Fbg [3]: 213.6 mg/dL
Hb [3]: 14.5 g/dL
Ht [3]: 42.1%
Lym [3]: 77.2%
MCH [3]: 20.3 pg
MCHC [3]: 34.5%
MCV [3]: 58.9 fL
Mono [3]: 2.4%
Neu [3]: 18.8%
PT [3]: 11.9 s
Plat [3]: 114.5 x10_4/uL
RBC [3]: 714.8 x10_4/ul
Ret [3]: 3.8%
WBC [3]: 113.5 x10_2/uL
APTT [4]: 20.5 s
Bas [4]: 0%
Eos [4]: 1%
Fbg [4]: 216 mg/dL
Hb [4]: 15.3 g/dL
Ht [4]: 43.5%
Lym [4]: 79.2%
MCH [4]: 19.6 pg
MCHC [4]: 35.1%
MCV [4]: 55.9 fL
Mono [4]: 2%
Neu [4]: 16.8%
PT [4]: 12.4 s
Plat [4]: 113.3 x10_4/uL
RBC [4]: 778.4 x10_4/ul
Ret [4]: 2.2%
WBC [4]: 104.9 x10_2/uL
KIDNEY_L [2]: 1.1 g
KIDNEY_R [2]: 1.1 g
KIDNEY_TOTAL [2]: 2.2 g
KIDNEY_L [3]: 1.2 g
KIDNEY_R [3]: 1.2 g
KIDNEY_TOTAL [3]: 2.4 g
KIDNEY_L [4]: 1.5 g
KIDNEY_R [4]: 1.5 g
KIDNEY_TOTAL [4]: 2.9 g
LIVER [2]: 12.6 g
LIVER [3]: 13 g
LIVER [4]: 16.6 g
A/G [2]: 1.5
ALP [2]: 874.2 IU/L
ALT [2]: 34.6 IU/L
AST [2]: 62.2 IU/L
BUN [2]: 16.8 mg/dL
CRE [2]: 0.4 mg/dL
Ca [2]: 10.7 mg/dL
Cl [2]: 103.2 meq/L
DBIL [2]: 0.092 mg/dL
GLC [2]: 198 mg/dL
IP [2]: 7.6 mg/dL
K [2]: 3.8 meq/L
LDH [2]: 173.8 IU/L
Na [2]: 140.6 meq/L
PL [2]: 153 mg/dL
RALB [2]: 3.5 g/dL
TBIL [2]: 0.2 mg/dL
TC [2]: 70.6 mg/dL
TG [2]: 131.8 mg/dL
TP [2]: 5.8 g/dL
gamma-GTP [2]: 0.8 IU/L
A/G [3]: 1.5
ALP [3]: 742.4 IU/L
ALT [3]: 34.8 IU/L
AST [3]: 60.6 IU/L
BUN [3]: 16 mg/dL
CRE [3]: 0.4 mg/dL
Ca [3]: 10.6 mg/dL
Cl [3]: 102.4 meq/L
DBIL [3]: 0.082 mg/dL
GLC [3]: 240.8 mg/dL
IP [3]: 7.6 mg/dL
K [3]: 3.4 meq/L
LDH [3]: 177.2 IU/L
Na [3]: 141 meq/L
PL [3]: 144.6 mg/dL
RALB [3]: 3.5 g/dL
TBIL [3]: 0.1 mg/dL
TC [3]: 70 mg/dL
TG [3]: 125.2 mg/dL
TP [3]: 5.8 g/dL
gamma-GTP [3]: 0.8 IU/L
A/G [4]: 1.3
ALP [4]: 506.2 IU/L
ALT [4]: 32.2 IU/L
AST [4]: 65.2 IU/L
BUN [4]: 18.8 mg/dL
CRE [4]: 0.5 mg/dL
Ca [4]: 10.4 mg/dL
Cl [4]: 103 meq/L
DBIL [4]: 0.1 mg/dL
GLC [4]: 233 mg/dL
IP [4]: 7.1 mg/dL
K [4]: 3.8 meq/L
LDH [4]: 223.6 IU/L
Na [4]: 141.2 meq/L
PL [4]: 145.8 mg/dL
RALB [4]: 3.4 g/dL
TBIL [4]: 0.1 mg/dL
TC [4]: 72 mg/dL
TG [4]: 115.2 mg/dL
TP [4]: 6.1 g/dL
gamma-GTP [4]: 0.8 IU/L
TERMINAL_BW [5]: 235.6 g
APTT [5]: 22.5 s
Bas [5]: 0%
Eos [5]: 1%
Fbg [5]: 213.8 mg/dL
Hb [5]: 13.1 g/dL
Ht [5]: 39.1%
Lym [5]: 76.6%
MCH [5]: 20.8 pg
MCHC [5]: 33.6%
MCV [5]: 61.9 fL
Mono [5]: 2.8%
Neu [5]: 18.8%
PT [5]: 13.5 s
Plat [5]: 126.1 x10_4/uL
RBC [5]: 631.2 x10_4/ul
Ret [5]: 6.4%
WBC [5]: 124.8 x10_2/uL
KIDNEY_L [5]: 1 g
KIDNEY_R [5]: 1 g
KIDNEY_TOTAL [5]: 2.1 g
LIVER [5]: 11 g
A/G [5]: 1.6
ALP [5]: 1017.8 IU/L
ALT [5]: 39.2 IU/L
AST [5]: 68.2 IU/L
BUN [5]: 14.4 mg/dL
CRE [5]: 0.4 mg/dL
Ca [5]: 10.6 mg/dL
Cl [5]: 100.2 meq/L
DBIL [5]: 0.08 mg/dL
GLC [5]: 203.4 mg/dL
IP [5]: 8.7 mg/dL
K [5]: 4 meq/L
LDH [5]: 174.4 IU/L
Na [5]: 139.6 meq/L
PL [5]: 129.6 mg/dL
RALB [5]: 3.5 g/dL
TBIL [5]: 0.1 mg/dL
TC [5]: 56.6 mg/dL
TG [5]: 97 mg/dL
TP [5]: 5.7 g/dL
gamma-GTP [5]: 1.2 IU/L
TERMINAL_BW [6]: 268.3 g
TERMINAL_BW [7]: 312.6 g
TERMINAL_BW [8]: 389.5 g
APTT [6]: 22.7 s
Bas [6]: 0%
Eos [6]: 1%
Fbg [6]: 206.4 mg/dL
Hb [6]: 13.7 g/dL
Ht [6]: 40.1%
Lym [6]: 81.8%
MCH [6]: 20.8 pg
MCHC [6]: 34.2%
MCV [6]: 60.8 fL
Mono [6]: 2.2%
Neu [6]: 14.8%
PT [6]: 13.3 s
Plat [6]: 121.3 x10_4/uL
RBC [6]: 660 x10_4/ul
Ret [6]: 5.6%
WBC [6]: 94 x10_2/uL
APTT [7]: 22.1 s
Bas [7]: 0%
Eos [7]: 0.8%
Fbg [7]: 192.2 mg/dL
Hb [7]: 14.3 g/dL
Ht [7]: 41.5%
Lym [7]: 79.6%
MCH [7]: 20.8 pg
MCHC [7]: 34.6%
MCV [7]: 60.2 fL
Mono [7]: 2.2%
Neu [7]: 16.4%
PT [7]: 13.8 s
Plat [7]: 125.2 x10_4/uL
RBC [7]: 689 x10_4/ul
Ret [7]: 3.8%
WBC [7]: 109.7 x10_2/uL
APTT [8]: 24.9 s
Bas [8]: 0%
Eos [8]: 1.2%
Fbg [8]: 184.4 mg/dL
Hb [8]: 15.3 g/dL
Ht [8]: 44%
Lym [8]: 80%
MCH [8]: 19.7 pg
MCHC [8]: 34.7%
MCV [8]: 56.6 fL
Mono [8]: 2%
Neu [8]: 15.8%
PT [8]: 14 s
Plat [8]: 114 x10_4/uL
RBC [8]: 779.4 x10_4/ul
Ret [8]: 1.9%
WBC [8]: 137.8 x10_2/uL
KIDNEY_L [6]: 1.1 g
KIDNEY_R [6]: 1.1 g
KIDNEY_TOTAL [6]: 2.2 g
KIDNEY_L [7]: 1.3 g
KIDNEY_R [7]: 1.2 g
KIDNEY_TOTAL [7]: 2.5 g
KIDNEY_L [8]: 1.4 g
KIDNEY_R [8]: 1.4 g
KIDNEY_TOTAL [8]: 2.8 g
LIVER [6]: 12.3 g
LIVER [7]: 13.8 g
LIVER [8]: 17.2 g
A/G [6]: 1.7
ALP [6]: 1036.6 IU/L
ALT [6]: 32.8 IU/L
AST [6]: 61.2 IU/L
BUN [6]: 15.2 mg/dL
CRE [6]: 0.4 mg/dL
Ca [6]: 10.5 mg/dL
Cl [6]: 103.2 meq/L
DBIL [6]: 0.086 mg/dL
GLC [6]: 195.8 mg/dL
IP [6]: 7.9 mg/dL
K [6]: 3.8 meq/L
LDH [6]: 205.8 IU/L
Na [6]: 141.6 meq/L
PL [6]: 143 mg/dL
RALB [6]: 3.7 g/dL
TBIL [6]: 0.1 mg/dL
TC [6]: 61 mg/dL
TG [6]: 141.4 mg/dL
TP [6]: 5.9 g/dL
gamma-GTP [6]: 1 IU/L
A/G [7]: 1.7
ALP [7]: 768.4 IU/L
ALT [7]: 28.6 IU/L
AST [7]: 56.2 IU/L
BUN [7]: 16.8 mg/dL
CRE [7]: 0.5 mg/dL
Ca [7]: 10.3 mg/dL
Cl [7]: 101.8 meq/L
DBIL [7]: 0.09 mg/dL
GLC [7]: 215.4 mg/dL
IP [7]: 7.2 mg/dL
K [7]: 3.7 meq/L
LDH [7]: 202.4 IU/L
Na [7]: 140.8 meq/L
PL [7]: 126.8 mg/dL
RALB [7]: 3.6 g/dL
TBIL [7]: 0.1 mg/dL
TC [7]: 49.6 mg/dL
TG [7]: 134 mg/dL
TP [7]: 5.9 g/dL
gamma-GTP [7]: 0.8 IU/L
A/G [8]: 1.6
ALP [8]: 588.2 IU/L
ALT [8]: 34.4 IU/L
AST [8]: 61.6 IU/L
BUN [8]: 18.6 mg/dL
CRE [8]: 0.5 mg/dL
Ca [8]: 10.4 mg/dL
Cl [8]: 103.4 meq/L
DBIL [8]: 0.1 mg/dL
GLC [8]: 221.8 mg/dL
IP [8]: 6.7 mg/dL
K [8]: 3.5 meq/L
LDH [8]: 209 IU/L
Na [8]: 142.4 meq/L
PL [8]: 124.2 mg/dL
RALB [8]: 3.8 g/dL
TBIL [8]: 0.2 mg/dL
TC [8]: 48.6 mg/dL
TG [8]: 144.8 mg/dL
TP [8]: 6.2 g/dL
gamma-GTP [8]: 1 IU/L
